Test results as given in patent US20170050966A1, “INHIBITING THE TRANSIENT RECEPTOR POTENTIAL A1 ION CHANNEL” (HYDRA BIOSCIENCES, INC., priority 2014, published 2017).
Values after ≈ are worked out from the molar mass of the structure shown. Read-outs that look alike come from different tables or passages of the source.

Legend:
human TRPA1 (hTRPA1) = target: T1, human TRPA1 (hTRPA1) (Homo sapiens, UniProt O75762); assay: Inhibition of human TRPA1, whole-cell patch clamp; assay type: cell-based; details: antagonist effect, whole cell patch configuration; read-out: hTRPA1
T1 construct: expressed in transfected cells
T1 sequence (O75762 whole entry): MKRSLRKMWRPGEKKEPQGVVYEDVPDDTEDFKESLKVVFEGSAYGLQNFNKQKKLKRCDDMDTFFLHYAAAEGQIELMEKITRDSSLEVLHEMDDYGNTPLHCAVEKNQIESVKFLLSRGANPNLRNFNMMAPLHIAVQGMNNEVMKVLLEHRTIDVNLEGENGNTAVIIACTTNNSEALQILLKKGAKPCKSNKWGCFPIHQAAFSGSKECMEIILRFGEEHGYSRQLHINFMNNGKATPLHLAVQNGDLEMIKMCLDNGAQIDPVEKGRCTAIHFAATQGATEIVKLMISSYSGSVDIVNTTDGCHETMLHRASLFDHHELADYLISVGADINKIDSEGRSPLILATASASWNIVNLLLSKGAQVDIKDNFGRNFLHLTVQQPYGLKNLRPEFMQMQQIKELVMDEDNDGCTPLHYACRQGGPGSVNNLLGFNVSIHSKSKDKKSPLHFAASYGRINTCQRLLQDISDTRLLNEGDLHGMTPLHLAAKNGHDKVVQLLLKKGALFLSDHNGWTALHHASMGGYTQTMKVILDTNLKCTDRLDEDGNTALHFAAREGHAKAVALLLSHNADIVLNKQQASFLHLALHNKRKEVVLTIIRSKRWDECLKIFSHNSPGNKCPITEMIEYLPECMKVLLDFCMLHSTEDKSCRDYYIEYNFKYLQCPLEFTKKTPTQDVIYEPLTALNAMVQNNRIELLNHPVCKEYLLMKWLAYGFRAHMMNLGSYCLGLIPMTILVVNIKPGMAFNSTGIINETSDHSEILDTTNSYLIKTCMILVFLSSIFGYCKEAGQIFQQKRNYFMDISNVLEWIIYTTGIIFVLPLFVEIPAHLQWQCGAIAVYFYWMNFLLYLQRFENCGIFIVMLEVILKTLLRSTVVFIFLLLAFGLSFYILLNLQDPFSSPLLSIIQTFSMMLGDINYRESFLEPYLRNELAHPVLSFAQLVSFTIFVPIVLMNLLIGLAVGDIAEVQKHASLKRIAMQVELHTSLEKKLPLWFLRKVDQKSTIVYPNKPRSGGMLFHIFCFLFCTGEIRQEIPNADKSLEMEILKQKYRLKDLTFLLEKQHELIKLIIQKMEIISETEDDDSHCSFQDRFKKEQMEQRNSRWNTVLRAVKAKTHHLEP
Method: Data for TRPA1 inhibition was obtained by this method for the indicated compounds of Formula (I), with the relevant data included in Table 14 below. All currents were recorded in whole-cell configuration using EPC-9 and EPC-10 amplifiers and Patchmaster software (HEKA). […] The standard pipette solution consisted of 140 mM CsAsp, 10 mM EGTA, 10 mM HEPES, […], 1.91 mM CaCl2, and up to 0.3 mM Na2GTP, with pH adjusted to 7.2 with CsOH. In addition, a solution containing 145 mM CsCl, 10 mM HEPES, 10 mM EGTA, and up to 0.3 mM Na2GTP and 1 mM MgCl2 (pH 7.2 adjusted with CsOH) can be used. The standard bath solution contained 150 mM NaCl, 10 mM HEPES, 10 mM glucose, 4.5 mM KCl, 1 mM EGTA, 3 mM MgCl2, with pH adjusted to 7.4 with NaOH. In some instances, 2 mM CaCl2 was added in place of EGTA and the concentration of MgCl2 was reduced to 1 mM.
Data were collected either by continuous recordings at −60 mV or by applying voltage ramps from a holding potential of 0 mV every 4 s. Continuous recordings were collected at 400 Hz and digitally filtered off-line at 10 Hz for presentation. Voltage ramps were applied from −100 mV to 100 mV over the course of 400 ms, and data were collected at 10 kHz and filtered at […]. Inward and outward currents were analyzed from the ramps at −80 and 80 mV, respectively. Liquid junction potential correction was not used.
Solutions were switched using a gravity-fed continuous focal perfusion system. To achieve rapid temperature changes, two temperature control, and perfusion systems were employed simultaneously. For temperatures greater than or equal to 22° C., a Warner Instruments bipolar temperature controller (TC-344B) and inline heater (SHM-8) were used. […] Temperatures were confirmed using a thermistor (Warner Instruments, TA-29), with temperatures at the recorded cell estimated to be within +/−2° C. of those reported.
The antagonist effects of compounds of Formula (I) against human TRPA1 (“hTRPA1”) in a whole cell patch configuration were evaluated using the in vitro assay protocol described above.

[1] = Metabolic stability in liver microsomes; assay type: in vitro ADME; details: rat liver microsomes; for half-life at 1 μM: both sexes, read-out: Half-Life Both sexes
Method: (§1) Metabolic stability of the compounds of Formula (I) was determined by standard liver microsome assays. Briefly, metabolic stability was tested by adding the compound to be tested dissolved in DMSO to human, dog, or rat liver microsomes. Assays were run with a starting concentration of 1 μM test compound. The reaction was initiated by addition of nicotinamide adenine dinucleotide phosphate[…] (NADPH) regeneration components at 37° C., at which time an aliquot was immediately quenched in an ice-cold acetonitrile/methanol/water solution. Reaction mixture was incubated at 37° C. on a shaker, and additional aliquots were taken at 7, 15, 30 and 60 minutes. Following quench and centrifugation, samples were analyzed on HPLC/MS/MS.

[2] = Metabolic stability in liver microsomes; assay type: in vitro ADME, human; details: 1 μM test compound; for half-life at 1 μM: human, liver microsomes, 37° C.
Method: as §1

[3] = Kinetic solubility in buffered solutions; assay type: physicochemical; details: aqueous buffer, kinetic from dmso stock, 24 hours ambient
Method: The solubilities of the compounds of Formula (I) were tested using the procedure outlined in Kerns, E. H., J Pharm Sci (2001) 90:1838-1858, incorporated herein by reference and described below. Data for solubility was obtained by this method for compounds of Formula (I) and included in Table 3. The chromatographic data was performed by HPLC using an Xbridge Shield RP18 column with the following column dimensions: 4.6×30 mm, 3.5 μm. The mobile phase consisted of deionized water (MPA) with trifluoroacetic acid added in at 0.1% (v/v) (MPC) and HPLC-grade acetonitrile (MPB). The mobile phase flow rate was 2.5 mL/min with the column and sampling operating at ambient temperature. UV detection was set to 280 nm.
Samples for analysis of the compounds of Formula (I) were prepared at a % v/v=1/19 (i.e., 10 μL of the stock solution into 190 μL of buffer) by spiking stock solutions of the compounds of Formula (I) into buffered solutions. Three buffered solution systems were prepared: pH 4.0 prepared from 50 mM sodium acetate in a 5% dextrose in water solution, pH 7.4 prepared from 75 mM sodium phosphate in a 1:1 ratio of sterilized water for injection to a 5% dextrose in water solution, and pH 9.0 prepared from 50 mM sodium bicarbonate in a 1:2 ratio of sterilized water for injection to a 5% dextrose in water solution. The samples were incubated on a microplate shaker at 300 rpm for 24 hours at ambient temperature. Following incubation, the samples were centrifuged for five minutes at 13 k rpm at ambient temperature. The resulting supernantant was extracted for HPLC analysis.

[4] = sodium acetate buffer, pH 4.0, 50 mM sodium acetate, read-out: pH 4.0 solubility
[5] = sodium bicarbonate buffer, pH 9.0, 50 mM sodium bicarbonate, read-out: pH 9.0 solubility
[6] = sodium phosphate buffer, pH 7.4, 75 mM sodium phosphate, read-out: pH 7.4 solubility

IC50 (human TRPA1 (hTRPA1)) [nM] | half-life at 1 μM [1] [min] | half-life at 1 μM [2] [min] | Hepatic Clearance [1] [mL/min/kg] | Human Liver Microsomes Hepatic Clearance [2] [mL/min/kg] | solubility kinetic at 24 h [3, 4] [µg/mL] | solubility kinetic at 24 h [3, 5] [µg/mL] | solubility kinetic at 24 h [3, 6] [µg/mL] | Compound
2290 | – | – | – | – | – | – | – | C[C@H](C(=O)Nc1ccnc(-c2cnc(N3CCC[C@H]3C(F)(F)F)nc2)n1)n1cnc2c1c(=O)n(C)c(=O)n2C [Compound 3, (R)-2-(1,3-dimethyl-2,6-dioxo-2,3-dihydro-1H-purin-7(6H)-yl)-N-(2′-((S)-2-(trifluoromethyl)pyrrolidin-1-yl)-[2,5′-bipyrimidin]-4-yl)propanamide]
922 | – | – | – | – | – | – | – | Cn1c(=O)c2c(ncn2CC(=O)Nc2ccnc(-c3cnc(N4CC(F)(F)C4)nc3)n2)n(C)c1=O [Compound 7, N-(2′-(3,3-difluoroazetidin-1-yl)-[2,5′-bipyrimidin]-4-yl)-2-(1,3-dimethyl-2,6-dioxo-2,3-dihydro-1H-purin-7(6H)-yl)acetamide]
71.9 | 115 | 38.4 | – | – | – | – | – | Cn1c(=O)c2c(ncn2CC(=O)Nc2ccnc(-c3cnc(N4CCC(F)(F)CC4)nc3)n2)n(C)c1=O [Compound 8, N-(2′-(4,4-difluoropiperidin-1-yl)-[2,5′-bipyrimidin]-4-yl)-2-(1,3-dimethyl-2,6-dioxo-2,3-dihydro-1H-purin-7(6H)-yl)acetamide]
462 | – | – | – | – | – | – | – | C[C@@H](C(=O)Nc1ccnc(-c2cnc(N3CC(F)(F)C3)nc2)n1)n1cnc2c1c(=O)n(C)c(=O)n2C [Compound 9, (S)—N-(2′-(3,3-difluoroazetidin-1-yl)-2,5′-bipyrimidin-4-yl)-2-(1,3-dimethyl-2,6-dioxo-2,3-dihydro-1H-purin-7(6H)-yl)propanamide]
93.5 | – | – | – | – | – | – | – | Cn1c(=O)c2c(ncn2CC(=O)Nc2ccnc(-c3cnc(N4CC5CC5C4)nc3)n2)n(C)c1=O (stereo not shown) [Compound 10, N-(2′-(3-azabicyclo[3.1.0]hexan-3-yl)-[2,5′-bipyrimidin]-4-yl)-2-(1,3-dimethyl-2,6-dioxo-2,3-dihydro-1H-purin-7(6H)-yl)acetamide]
124 | – | – | – | – | – | – | – | Cn1c(=O)c2c(ncn2CC(=O)Nc2ccnc(-c3cnc(N4CCC(C(F)(F)F)C4)nc3)n2)n(C)c1=O (stereo not shown) [Compound 11, 2-(1,3-dimethyl-2,6-dioxo-2,3-dihydro-1H-purin-7(6H)-yl)-N-(2′-(3-(trifluoromethyl)pyrrolidin-1-yl)-[2,5′ bipyrimidin]-4-yl)acetamide]
387 | – | – | – | – | – | – | – | Cn1c(=O)c2c(ncn2CC(=O)Nc2ccnc(-c3cnc(N4CC(C(F)(F)F)C4)nc3)n2)n(C)c1=O [Compound 12, 2-(1,3-dimethyl-2,6-dioxo-1,2,3,6-tetrahydropurin-7-yl)-N-(2-(2-(3-(trifluoromethyl)azetidin-1-yl)pyrimidin-5-yl)pyrimidin-4-yl)acetamide]
94.8 | – | – | – | – | – | – | – | C[C@@H](C(=O)Nc1ccnc(-c2cnc(N3CCC(F)(F)CC3)nc2)n1)n1cnc2c1c(=O)n(C)c(=O)n2C [Compound 14, (S)—N-(2′(4,4-difluoropiperidin-1-yl)-2,5′-bipyrimidin-4-yl)-2-(1,3-dimethyl-2,6-dioxo-2,3-dihydro-1H-purin-7(6H)-yl)propanamide]
41.2 | – | 8 | 22 | 16 | 11 (≈ 22.4 µM) | 9 (≈ 18.3 µM) | 12 (≈ 24.5 µM) | C[C@H]1CCCCN1c1ncc(-c2nccc(NC(=O)Cn3cnc4c3c(=O)n(C)c(=O)n4C)n2)cn1 [Compound 17, (S)-2-(1,3-dimethyl-2,6-dioxo-2,3-dihydro-1H-purin-7(6H)-yl)-N-(2′-(2-methylpiperidin-1-yl)-2,5′-bipyrimidin-4-yl)acetamide]
10.4 | 21.8 | 12 | 24 | 15 | 51 (≈ 104 µM) | 17 (≈ 34.7 µM) | 41 (≈ 83.6 µM) | Cn1c(=O)c2c(ncn2CC(=O)Nc2ccnc(-c3cnc(N4CCCC4(C)C)nc3)n2)n(C)c1=O [Compound 18, 2-(1,3-dimethyl-2,6-dioxo-2,3-dihydro-1H-purin-7(6H)-yl)-N-(2′-(2,2-dimethylpyrrolidin-1-yl)-2,5′-bipyrimidin-4-yl)acetamide]
> 3200 | – | 26 | – | 12 | 50 (≈ 102 µM) | 70 (≈ 143 µM) | 89 (≈ 181 µM) | C[C@H](C(=O)Nc1ccnc(-c2cnc(N3CCC[C@@H]3C)nc2)n1)n1cnc2c1c(=O)n(C)c(=O)n2C [Compound 22, (R)-2-(1,3-dimethyl-2,6-dioxo-2,3-dihydro-1H-purin-7(6H)-yl)-N-(2′-((S)-2-methylpyrrolidin-1-yl)-[2,5′-bipyrimidin]-4-yl)propanamide]
60.7 | – | 4 | – | 18 | 20 (≈ 39.6 µM) | 14 (≈ 27.7 µM) | 31 (≈ 61.4 µM) | CC(C(=O)Nc1ccnc(-c2cnc(N3CCCC[C@@H]3C)nc2)n1)n1cnc2c1c(=O)n(C)c(=O)n2C (stereo partly drawn) [Compound 23, 2-(1,3-dimethyl-2,6-dioxo-2,3-dihydro-1H-purin-7(6H)-yl)-N-(2′-((S)-2-methylpiperidin-1-yl)-2,5′-bipyrimidin-4-yl)propanamide]
436 | – | – | – | – | – | – | – | C[C@H]1CCCN1c1ncc(-c2nccc(NC(=O)Cn3cnc4c3c(=O)[nH]c(=O)n4C)n2)cn1 [Compound 24, (S)-2-(3-methyl-2,6-dioxo-2,3-dihydro-1H-purin-7(6H)-yl)-N-(2′-(2-methylpyrrolidin-1-yl)-[2,5′-bipyrimidin]-4-yl)acetamide]
107 | – | 43 | – | 8 | 45 (≈ 93.8 µM) | 11 (≈ 22.9 µM) | 29 (≈ 60.5 µM) | [2H]C([2H])([2H])n1c(=O)n(C)c(=O)c2c1ncn2CC(=O)Nc1ccnc(-c2cnc(N3CCC[C@@H]3C)nc2)n1 [Compound 25, N-{2-[2-((2S)-2-methylpyrrolidinyl)pyrimidin-5-yl]pyrimidin-4-yl}-2-(1-methyl-3-methyl-d3-2,6-dioxo(1,3,7-trihydropurin-7-yl))acetamide]
255 | – | – | – | – | – | – | – | Cn1c(=O)c2c(ncn2CC(=O)Nc2ccnc(-c3cnc(N4CCC[C@H]4C(F)(F)F)nc3)n2)n(C)c1=O [Compound 27, (S)-2-(1,3-dimethyl-2,6-dioxo-2,3-dihydro-1H-purin-7(6H)-yl)-N-(2′-(2-(trifluoromethyl)pyrrolidin-1-yl)-[2,5′-bipyrimidin]-4-yl)acetamide]
65.9 | – | – | – | – | – | – | – | C[C@H](C(=O)Nc1ccnc(-c2cnc(N3CCC[C@@H]3C(F)(F)F)nc2)n1)n1cnc2c1c(=O)n(C)c(=O)n2C [Compound 28]
